These results are taken from patent publication US20260365696A1, “INHIBITORS OF PTP1B / NCK1 INTERACTION AND METHODS OF MAKING AND USING SAME” (Radella Pharmaceuticals LLC, priority 2023, published 2026).

Data set [1] can be described thus: Microsomal metabolic stability. The data set is classed as in vitro ADME. Conditions: human liver microsomes 0.5 mg/mL, 1 μM, 37 °C. Here is the method:
Microsomal Metabolic Stability (human liver microsomes): Human liver microsomes (final protein concentration 0.5 mg/mL), 0.1 M phosphate buffer pH 7.4 and test compound MD20 (final substrate concentration 1 μM; final DMSO concentration 0.25%) were pre-incubated at 37 °C prior to the addition of NADPH (final concentration 1 mM) to initiate the reaction. A minus cofactor control incubation was included for each compound tested where 0.1 M phosphate buffer pH 7.4 was substituted for NADPH (“minus NADPH”).
Each compound was incubated for 0, 5, 15, 30 and 45 min. The control (minus NADPH) was incubated for 45 min only. The reactions were stopped by transferring incubate in to acetonitrile at the appropriate time points, in a 1:3 ratio. The termination plates were centrifuged at 3,000 rpm for 20 min at 4 °C to precipitate the protein. Following protein precipitation, the sample supernatants were combined in cassettes of up to 4 compounds, internal standard was added and samples were analyzed using Cyprotex generic LC-MS/MS conditions. The time point at which 30-70% of parent had degraded was then investigated at 3 different levels of metabolite profiling and/or identification. The intrinsic clearance (CLint) of the test compound was calculated.

A short description of data set [2]: In vivo biodistribution / pharmacokinetics in C57/BL6 mice. The conditions noted are these: 30 mg/kg IP. Further details: species or system mouse. Here is the method: FIG. 6 is a graph showing MD20 concentrations in the indicated tissues in a mouse following intraperitoneal (IP) administration of the peptide at a dose of 30 mg/kg. Tissue samples were collected at 0, 0.25, 0.5, 1, 2, 4, 8, and 24 hours post-injection.
Biodistribution: In vivo pharmacokinetic assessments of biodistribution of MD20 were performed in C57/BL6 male mice. All animals were maintained under a 12 h light/dark cycle with free access to food and water, where temperature and humidity was controlled according to UK Home Office regulations. MD20 compound was dissolved in PBS and administered to animals via intraperitoneal (IP) injection at a dose of 30 mg/kg. Mice were sacrificed at eight different time points (0.25, 0.5, 1, 3, 4, 6, 8 and 24 h house post-dosing; n=3 animals per time point, 24 animals in total). Terminal blood (in EDTA-containing tubes for plasma), perfused liver, muscle, adipose, kidney and brain samples were collected and kept on dry ice. Blood samples were centrifuged (4 °C, 21,100 g for 5 min) and the resulting plasma was transferred in to corresponding tubes. All samples were analyzed using LC-MS and appropriate methods.

Data set [3] relates to GLUT4. The data set can be described thus: GLUT4 gene expression in adipose tissue of LDLR−/− mice (qPCR). Conditions: 30 mg/kg IP daily, vs control. The data set is classed as in vivo, mouse. Here is the method: (§1) FIGS. 30A-30E are graphs showing expression of various genes in tissues of HFD-fed LDLR−/− mice following 6 weeks of daily IP administration of MD20 (30 mg/kg) or a vehicle control. Mice were fasted for 5 hours at the conclusion of the experiment, liver and white adipose tissue (“WAT”) samples were collected, and gene expression was measured by qRT-PCR. Expression of glucose transporter 4 (GLUT4; FIG. 30A) and stearoyl-CoA-desaturase 1 (SCD1; FIG. 30B) was measured in adipose tissue, and expression of Glucose-6-phosphatase (G6P; FIG. 30C), Activating Transcription Factor 4 (ATF4; FIG. 30D), and 3-hydroxy-3-methylglutaryl (HMGCS; FIG. 30E) was measured in liver tissue. Data represent mean±SEM; statistical differences were determined using two tailed student's t-test.
(§2) Gene expression analyses: Livers and adipose tissue were collected from 5 h-fasted animals and snap-frozen in liquid nitrogen. RNA was isolated from frozen liver tissue using TRIzole (Sigma, UK) and cDNA was synthesized from 1 μg RNA using bioscript cDNA synthesis kit (Bioline, UK), oligo (dT) 18 (SEQ ID NO: 170), and random hexamer primers.
(§3) Genes of interest were amplified by quantitative PCR (qPCR) using gene-specific primers and GoTaq qPCR master mix (Promega, Madison, WI, USA).

For data set [4], the system named is Caco-2 cells. Nature of the data set: Caco-2 permeability assay. The data set is classed as in vitro ADME, human. Here is the method:
(§4) Permeability (Caco-2 assay): Caco 2 cells were used as an in vitro model of the human intestinal epithelium and to permit assessment of the intestinal permeability of potential drugs. Test compound was added to either the apical or basolateral side of a confluent monolayer of Caco 2 cells and permeability was measured by monitoring the appearance of the test compound on the opposite side of the monolayer using LC-MS/MS. When performing a bi-directional assay, the efflux ratio (ER) was calculated from the ratio of B-A and A-B permeabilities.
(§5) Briefly, Caco 2 cells obtained (ATCC) were used between passage numbers 40 and 60. Cells were seeded on to Transwell plates at 1×10^5 cells/cm^2. The cells were cultured in DMEM and media was changed every two or three days. On day 20, the permeability study was performed. […]
(§6) Test and control compounds were quantified by LC-MS/MS cassette analysis using a 7-point calibration with appropriate dilution of the samples. […] The starting concentration (C0) was determined from the dosing solution and the experimental recovery was calculated from C0 and both apical and basolateral compartment concentrations.
(§7) Data Analysis: The permeability coefficient (Papp) for each compound was calculated from the following equation: […]
(§8) For bi directional experiments, an efflux ratio (ER) was calculated from mean A-B and B-A data using the following equation: […]

A short description of data set [5]: Caco-2 permeability assay. The data set is classed as in vitro ADME, human. The conditions noted are these: human, Papp(B-A)/Papp(A-B), 120 min. Here is the method: as §4, §5, §6, §7, §8
Data set [6] deals with HMGCS. Nature of the data set: HMGCS gene expression in liver of LDLR−/− mice (qPCR). The data set is classed as in vivo, mouse. The conditions noted are these: 30 mg/kg IP daily, vs control. Here is the method:
as §1, §2, §3

Entries after “also recorded” stand apart in the source; their conditions may differ.

Ac-PRPPKR-NH2 [MD20, Ac-PRPPKR-NH2]: the “intrinsic clearance (CL int)” value in data set [1] is reported as 4.90. In data set [2], the “detection in most tissues and plasma, time post-administration” value is “up to 5 h”; the “stability and bioavailability in vivo” value was “good stability and bioavailability in vivo”. Besides, in data set [2] (any time point), the detection in liver result was “No MD20 was detected in the liver; also recorded: not detected in liver tissue at any time point”. Moreover, in data set [3], the “GLUT4 gene expression in adipose tissue” value is recorded as “increased”. Besides, the “permeation of cells relative to antihypertensive drugs” value in data set [4] is recorded as “able to permeate the cells at the same rate as some antihypertensive drugs (e.g., nicardipine)”. In data set [5], the efflux ratio at 2 h amounted to 0.252. Besides, the HMGCS expression entry in data set [6] is recorded as “upregulated”.
